Source: patent US9790231B2 (LUPIN LIMITED, priority 2013, dated 2017)
Counter-ions that a name gives are not always drawn.

These compounds were tested on IL-2 secretion by Jurkat T cells (assay: Inhibition of IL-2 secretion (PHA-stimulated Jurkat T cells, ELISA)). Settings: Homo sapiens, 20 to 24 hours.
Assay type: cell-based
Experimental: The CRAC channel modulatory activity of the compounds were thus evaluated by measuring the secretion of IL-2 by antigen stimulated T-cells in vitro. Alternatively, such activity can also be evaluated by assay methods known to one skilled in the art.
Inhibition of IL-2 secretion: Jurkat T cells were seeded at a density of 0.5 to 1 million cells per well in RPMI medium. Test compounds from this invention were added to the cells at different concentrations. This was followed by the addition of PHA, a T cell mitogen after 10 minutes. The cells were then incubated for 20 to 24 hours in a CO2 incubator at 37° C. After incubation with the compounds, cells were centrifuged; the supernatant was collected and processed for ELISA to quantitate the amount of IL-2 secreted. A commercial ELISA kit (R&D Systems, Inc. Minneapolis, Minn., USA) was used to estimate the IL-2 concentrations. Amount of IL-2 secreted by cells stimulated with PHA was considered as a 100% maximal signal and the decrease in amount of IL-2 secreted by cells treated with the test compounds was expressed as percent inhibition of the maximal signal. The dose response data was analyzed using 4-parametric sigmoidal dose response (variable slope) curve-fit.

IC50 | Structure (SMILES)
50 to 100 nM | Cc1cc2c(cc1-c1ccc(NC(=O)c3c(F)cccc3F)cc1)C(=O)CC1(CCC1)O2 [Example 17, 2,6-Difluoro-N-(4-(7-methyl-4-oxospiro[chroman-2,1′-cyclobutan]-6-yl)phenyl)benzamide]
< 25 nM | Cc1cc2c(cc1-c1ccc(C(=O)Nc3c(F)cncc3F)cc1)OC1(CCC1)CC2 [Example 66, N-(3,5-Difluoropyridin-4-yl)-4-(6-methylspiro[chroman-2,1′-cyclobutan]-7-yl)benzamide]
< 25 nM | Cc1cc2c(cc1-c1ccc(NCc3c(F)cccc3F)cc1)OC(C)(C)CC2=O [Example 33, 7-(4-((2,6-Difluorobenzyl)amino)phenyl)-2,2,6-trimethylchroman-4-one]
< 25 nM | Cc1cc2c(cc1-c1ccc(NC(=O)c3c(F)cccc3Cl)cc1)OC1(CCC1)CC2 [Example 8, 2-Chloro-6-fluoro-N-(4-(6-methylspiro[chroman-2,1′-cyclobutan]-7-yl)phenyl)benzamide]
100 to 500 nM | COCC1(C)C=C(c2ccc(NC(=O)c3c(F)cccc3F)cn2)c2cccc(C)c2O1 (centres unmarked) [Example 105, 2,6-Difluoro-N-(6-(2-(methoxymethyl)-2,8-dimethyl-2H-chromen-4-yl)pyridin-3-yl)benzamide]
< 25 nM | Cc1cc2c(cc1-c1ccc(NC(=O)c3c(F)cccc3F)cc1)OC1(CCC1)CC2=O [Example 16, 2,6-Difluoro-N-(4-(6-methyl-4-oxospiro[chroman-2,1′-cyclobutan]-7-yl)phenyl)benzamide]
50 to 100 nM | Cc1c(-c2ccc(NC(=O)c3c(F)cccc3F)cc2)ccc2c1OC1(CCC1)CC2 [Example 23, 2,6-Difluoro-N-(4-(8-methylspiro[chroman-2,1′-cyclobutan]-7-yl)phenyl)benzamide]
25 to 50 nM | Cc1cc2c(cc1-c1ccc(NC(=O)c3c(F)cccc3F)cn1)OC(C)(C)CC2=O [Example 27, 2,6-Difluoro-N-(6-(2,2,6-trimethyl-4-oxochroman-7-yl)pyridin-3-yl)benzamide]
< 25 nM | CCc1cc2c(cc1-c1ccc(NC(=O)c3c(F)cccc3F)cc1)OC1(CCC1)CC2 [Example 24, N-(4-(6-Ethylspiro[chroman-2,1′-cyclobutan]-7-yl)phenyl)-2,6-difluorobenzamide]
< 25 nM | Cc1cc2c(cc1-c1ccc(NC(=O)c3c(F)cccc3F)cc1)OC(C)(CO)CC2=O (centres unmarked) [Example 51, 2,6-Difluoro-N-(4-(2-(hydroxymethyl)-2,6-dimethyl-4-oxochroman-7-yl)phenyl)benzamide]
50 to 100 nM | Cc1cc2c(cc1-c1ccc(NC(=O)c3c(F)cccc3F)cc1)CCC1(CCC1)O2 [Example 18, 2,6-Difluoro-N-(4-(7-methylspiro[chroman-2,1′-cyclobutan]-6-yl)phenyl)benzamide]
25 to 50 nM | CC1(C)C=C(c2ccc(NC(=O)c3c(F)cccc3F)cc2)c2ccccc2O1 [Example 79, N-(4-(2,2-Dimethyl-2H-chromen-4-yl)phenyl)-2,6-difluorobenzamide]
50 to 100 nM | Cc1ccc2c(c1)C(c1ccc(NC(=O)c3c(F)cccc3F)cc1)=CC(C)(CO)O2 (centres unmarked) [Example 95, 2,6-Difluoro-N-(4-(2-(hydroxymethyl)-2,6-dimethyl-2H-chromen-4-yl)phenyl)benzamide]
< 25 nM | Cc1cc2c(cc1-c1ccc(NC(=O)c3c(F)cccc3F)cc1)OC1(CCC1)CC2 [Example 22, 2,6-Difluoro-N-(4-(6-methylspiro[chroman-2,1′-cyclobutan]-7-yl)phenyl)benzamide]
25 to 50 nM | COCC1(C)C=C(c2ccc(NC(=O)c3c(F)cccc3F)cc2)c2ccccc2O1 (centres unmarked) [Example 90]
< 25 nM | Cc1cc2c(cc1-c1ccc(C(=O)Nc3c(F)cncc3F)cc1)OC1(CCC1)CC2=O [Example 64, N-(3,5-Difluoropyridin-4-yl)-4-(6-methyl-4-oxospiro[chroman-2,1′-cyclobutan]-7-yl)benzamide]
100 to 500 nM | COC(=O)C1(C)CC(=O)c2cc(C)c(-c3cnc(NC(=O)c4c(F)cccc4F)cn3)cc2O1 (centres unmarked) [Example 45, Methyl 7-(5-(2,6-difluorobenzamido)pyrazin-2-yl)-2,6-dimethyl-4-oxochroman-2-carboxylate]

Further lines, the compound ahead of its results:

Structure (SMILES) | IC50
O=C(Nc1ccc(C2=CC3(CCC3)Oc3ccccc32)cn1)c1c(F)cccc1F [Example 72, 2,6-Difluoro-N-(5-(spiro[chromene-2,1′-cyclobutan]-4-yl)pyridin-2-yl)benzamide] | 25 to 50 nM
Cc1ccc2c(c1)OC(C)(C)C=C2c1ccc(NC(=O)c2c(F)cccc2F)cc1 [Example 87, 2,6-Difluoro-N-(4-(2,2,7-trimethyl-2H-chromen-4-yl)phenyl)benzamide] | 50 to 100 nM
Cc1cccc2c1OC1(C=C2c2ccc(C(=O)Nc3c(F)cncc3F)cc2)CCC1 [Example 111, N-(3,5-Difluoropyridin-4-yl)-4-(8-methylspiro[chromene-2,1′-cyclobutan]-4-yl)benzamide] | 25 to 50 nM
Cc1cc2c(cc1-c1ccc(C(=O)Nc3c(F)cccc3F)cc1)OC1(CCC1)CC2 [Example 116, N-(2,6-Difluorophenyl)-4-(6-methylspiro[chroman-2,1′-cyclobutan]-7-yl)benzamide] | 25 to 50 nM
Cc1cccc2c1OC1(C=C2c2ccc(NC(=O)c3c(F)cccc3F)cn2)CCC1 [Example 102, 2,6-Difluoro-N(6-(8-methylspiro[chromene-2,1′-cyclobutan]-4-yl)pyridin-3-yl)benzamide] | 25 to 50 nM
Cc1cc2c(cc1-c1ccc(NC(=O)c3c(F)cccc3F)nc1)OC(C)(CO)CC2=O (centres unmarked) [Example 54, 2,6-Difluoro-N-(5-(2-(hydroxymethyl)-2,6-dimethyl-4-oxochroman-7-yl)pyridin-2-yl)benzamide] | 50 to 100 nM
CCc1cc2c(cc1-c1cnc(NC(=O)c3c(F)cccc3F)cn1)OC1(CCC1)CC2=O [Example 41, N-(5-(6-Ethyl-4-oxospiro[chroman-2,1′-cyclobutan]-7-yl)pyrazin-2-yl)-2,6-difluorobenzamide] | 50 to 100 nM
Cc1cc2c(cc1-c1ccc(NC(=O)c3c(F)cccc3F)cc1)OC(C)(C)CC2=O [Example 1, 2,6-Difluoro-N-(4-(2,2,6-trimethyl-4-oxochroman-7-yl)phenyl)benzamide] | 25 to 50 nM
Cc1cc2c(cc1-c1ccc(C(=O)Nc3c(F)cccc3F)cc1)OC1(CCC1)CC2=O [Example 13, N-(2,6-Difluorophenyl)-4-(6-methyl-4-oxospiro[chroman-2,1′-cyclobutan]-7-yl)benzamide] | 25 to 50 nM
Cc1cc2c(cc1-c1cnc(NC(=O)c3c(F)cccc3F)cn1)OC(C)(C)CC2=O [Example 4, 2,6-Difluoro-N-(5-(2,2,6-trimethyl-4-oxochroman-7-yl)pyrazin-2-yl)benzamide] | < 25 nM
Cc1ccc2c(c1)C(c1ccc(NC(=O)c3c(F)cccc3F)nc1)=CC1(CCC1)O2 [Example 106, 2,6-Difluoro-N-(5-(6-methylspiro[chromene-2,1′-cyclobutan]-4-yl)pyridin-2-yl)benzamide] | 100 to 500 nM
Cc1ccc2c(c1)C(c1ccc(NC(=O)c3c(F)cccc3F)cc1)=CC1(CCC1)O2 [Example 75, 2,6-Difluoro-N-(4-(6-methylspiro[chromene-2,l′-cyclobutan]-4-yl)phenyl)benzamide] | < 25 nM
Cc1cc2c(cc1-c1ccc(NCc3c(F)cccc3F)cc1)OC1(CCC1)CC2=O [Example 21, 7-(4-((2,6-Difluorobenzyl)amino)phenyl)-6-methylspiro[chroman-2,1′-cyclobutan]-4-one] | 25 to 50 nM
Cc1cc2c(cc1-c1ccc(NCc3c(F)cccc3F)nc1)OC(C)(C)CC2=O [Example 35, 7-(6-((2,6-Difluorobenzyl)amino)pyridin-3-yl)-2,2,6-trimethylchroman-4-one] | < 25 nM
Cc1cc2c(cc1-c1ccc(NC(=O)c3c(F)cccc3F)nc1)OC1(COC1)CC2=O [Example 124, 2,6-Difluoro-N-(5-(6-methyl-4-oxospiro[chroman-2,3′-oxetan]-7-yl)pyridin-2-yl)benzamide] | 25 to 50 nM
Cc1cccc2c1OC(C)(C)C=C2c1ccc(NC(=O)c2c(F)cccc2F)nc1 [Example 98, 2,6-Difluoro-N(5-(2,2,8-trimethyl-2H-chromen-4-yl)pyridin-2-yl)benzamide] | 25 to 50 nM
COCC1(C)C=C(c2ccc(NC(=O)c3c(F)cccc3F)nc2)c2cccc(C)c2O1 (centres unmarked) [Example 104, 2,6-Difluoro-N-(5-(2-(methoxymethyl)-2,8-dimethyl-2H-chromen-4-yl)pyridin-2-yl)benzamide] | < 25 nM
Cc1cccc2c1OC(C)(C)C=C2c1cnc(NC(=O)c2c(F)cccc2F)cn1 [Example 89, 2,6-Difluoro-N-(5-(2,2,8-trimethyl-2H-chromen-4-yl)pyrazin-2-yl)benzamide] | < 25 nM
CC1(C)C=C(c2ccc(NC(=O)c3c(F)cccc3F)nc2)c2ccccc2O1 [Example 108, N-(5-(2,2-Dimethyl-2H-chromen-4-yl)pyridin-2-yl)-2,6-difluorobenzamide] | 25 to 50 nM
Cc1cc2c(cc1-c1ccc(NCc3c(F)cccc3F)nc1)OC1(CCC1)CC2=O [Example 39, 7-(6-((2,6-Difluorobenzyl)amino)pyridin-3-yl)-6-methylspiro[chroman-2,1′-cyclobutan]-4-one] | < 25 nM
Cc1cc2c(cc1-c1ccc(NC(=O)c3c(F)cccc3F)cc1)OC1(CNC1)CC2=O [Example 120, 2,6-Difluoro-N-(4-(6′-methyl-4′-oxospiro[azetidine-3,2′-chroman]-7′-yl)phenyl)benzamide hydrochloride] | 50 to 100 nM
